Laboratory results as given in patent publication US20060258635A1, “Use of a porphyrin compound for the treatment of skin fungi” (PHOTOBIOCHEM N.V., priority 2003, published 2006).

Assays:
[1] = tested on: Trichophyton rubrum; assay type: cell-based
[2] = tested on: Trichophyton rubrum; assay: Photodynamic treatment of Trichophyton rubrum suspension culture (white light illumination, growth on MEA quantified by counting inoculates); assay type: cell-based; settings: for photodynamic efficacy below a concentration of 3 μg/ml: below 3 μg/ml; for photodynamic efficacy below a concentration of 3 μg/ml / photodynamic efficacy above a concentration of 3 μg/ml: FIG. 1A; for result of photodynamic treatment of Trichophyton rubrum in suspension culture: 30 min incubation at 28° C., white light illumination, growth monitored during one week; for photodynamic efficacy above a concentration of 3 μg/ml: above 3 μg/ml; for concentration at which a true fungicidal effect was detected: after photodynamic treatment, FIG. 1B; for survival of the fungus after photodynamic treatment: after 7 days, over the whole concentration range used, control without photosensitizer is 100%
Description: Materials The fungus Trichophyton rubrum was purchased from the Centraalbureau voor Schimmelcultures (CBS), Baarn, The Netherlands. Cultures were grown on Malt Extract Agar (MEA, Oxoid, Hampshire England). Suspension cultures were made in Dulbecco's Modified Eagle Medium (DMEM, GibcoBRL, UK) with 2.5 % Fetal Calf Serum (FCS, GibcoBRL, UK).
Solid cultures were maintained at 28° C., the suspension cultures at room temperature. Hematoporphyrin (HP) was purchased from Porphyrin Products Inc. (Utah, USA), 5,10,15-tris(4-methylpyridinium)-20-phenyl-[21H, 23H]-porphyrine trichloride (Sylsens B), deuteroporphyrin (DP) and deuteroporphyrin monomethylester (DP mme) were synthesized and kindly provided by the Department of Bio-Organic Photochemistry, Leiden University, the Netherlands (purity, checked with NMR was more than 99.5%). All the phthalocyanines were purchased from Porphyrin Products. Inc. (Utah, USA)) and Photofrin was purchased from Lederle Parenterals Inc. (Carolina, USA). Polyethylene-glycol was obtained from Genfarma B.V. (Maarssen, the Netherlands), while all other chemicals were purchased from J.T.Baker (Deventer, The Netherlands).
The following solvents were used: • 50 mM sodium phosphate buffer pH 7.4 for Sylsens B, HP, Photofrin, ZnPc and AlPcS4; • polyethyleneglycol:ethanol:water (3:2:5) for DP and DP mme; and • dimethylformamide (DMF) for PcS4.
Stock solutions of the photosensitizers of 2.5 mg/ml solvent were stored at […] for no longer than one week.
Photodynamic treatment Illuminations were performed with a lamp from “MASSIVE” (no.74900/21), 1× max. 500W-230 V-R7s, IP 44. To avoid heating of the samples to be illuminated, the white light produced by the lamp first passes a 2 cm thick water layer before reaching the samples. The light intensity was measured with a IL1400A photometer equipped with a SEL033/F/U detector (International Light, Newburyport, Mass., USA). Before illumination, the fungal culture suspensions were incubated with the photosensitizer in test tubes for 30 minutes at a temperature of 28° C. After incubation, the suspension cultures were illuminated in the presence of the sensitizer in 3 cm diameter culture dishes (Greiner, Alphen aan den Rijn, The Netherlands). After illumination, the contents of the culture dishes were transferred to dishes of 9 cm diameter containing MEA, placed in the incubator at 28° C. and growth was monitored during one week and quantified by counting the number of inoculates present.

Molecule | dark toxicity [1] | photodynamic efficacy below a concentration of 3 μg/ml [2] | result of photodynamic treatment of Trichophyton rubrum in suspension culture [2] | photodynamic efficacy above a concentration of 3 μg/ml [2] | concentration at which a true fungicidal effect was detected [2] [µg/mL] | effectiveness among the porphyrin derivatives ([2]; comparison of porphyrin derivatives) | survival of the fungus after photodynamic treatment [2] [%] | concentration at which dark toxicity is displayed [1] [µg/mL]
CC1=C(CCC(=O)O)c2cc3nc(cc4[nH]c(cc4C)cc4[nH]c(cc1n2)cc4C)C(C)=C3CCC(=O)O [DP, deuteroporphyrin] | expresses a dark toxicity at higher concentrations | poorest efficacy | – | – | – | – | – | –
CC1=C(CCC(=O)O)c2cc3[nH]c(cc4nc(cc5[nH]c(cc1n2)c(C)c5C(C)O)C(C)=C4C(C)O)c(C)c3CCC(=O)O (stereo not drawn) [HP, Hematoporphyrin] | no dark toxicity | – | – | – | – | – | – | –
C[n+]1ccc(-c2c3nc(c(-c4cc[n+](C)cc4)c4ccc([nH]4)c(-c4cc[n+](C)cc4)c4nc(c(-c5ccccc5)c5ccc2[nH]5)C=C4)C=C3)cc1.[Cl-].[Cl-].[Cl-] [Sylsens B, 5,10,15-tris(4-methylpyridinium)-20-phenyl-[21H, 23H]-porphyrine trichloride] | no dark toxicity | better photodynamic efficacy | completely killing the fungus in almost all experiments | analogous to the effect caused by the other porphyrins | 3 | by far the most effective | – | –
[Zn+2].c1ccc2c(c1)-c1nc-2nc2[n-]c(nc3nc([n-]c4nc(n1)-c1ccccc1-4)-c1ccccc1-3)c1ccccc21 [ZnPc] | – | – | – | – | – | – | 100 | –
Photofrin | – | – | merely a delay of growth in the first days | – | – | – | 100 | ≥ 90
deuteroporphyrin monomethylester [DP mme] | expresses a dark toxicity at higher concentrations | the same as detected with HP | completely killing the fungus in almost all experiments | analogous to the effect caused by the other porphyrins | 3 | – | – | –
